Laboratory results as given in patent publication US7750145B2, “1-substituted-3-β-D-glucopyranosylated nitrogenous hetero-cyclic compounds and medicines containing the same” (Kissei Pharmaceutical Co., Ltd., priority 2004, dated 2010).

Experiments:
human SGLT1 = target: T1, human SGLT1 (Homo sapiens, UniProt P13866); experiment: Inhibition of methyl-α-D-glucopyranoside uptake in COS-7 cells expressing human SGLT1; assay type: cell-based; details: 14C α-MG uptake, 1 mM α-MG, transfected COS-7 cells, 1 hour at 37° C.; read-out: hSGLT1 IC50
T1 construct: expressed in transfected cells; host or cells: COS-7 cells, transient lipofection of pcDNA3.1(-) vector
T1 sequence (P13866 1-664): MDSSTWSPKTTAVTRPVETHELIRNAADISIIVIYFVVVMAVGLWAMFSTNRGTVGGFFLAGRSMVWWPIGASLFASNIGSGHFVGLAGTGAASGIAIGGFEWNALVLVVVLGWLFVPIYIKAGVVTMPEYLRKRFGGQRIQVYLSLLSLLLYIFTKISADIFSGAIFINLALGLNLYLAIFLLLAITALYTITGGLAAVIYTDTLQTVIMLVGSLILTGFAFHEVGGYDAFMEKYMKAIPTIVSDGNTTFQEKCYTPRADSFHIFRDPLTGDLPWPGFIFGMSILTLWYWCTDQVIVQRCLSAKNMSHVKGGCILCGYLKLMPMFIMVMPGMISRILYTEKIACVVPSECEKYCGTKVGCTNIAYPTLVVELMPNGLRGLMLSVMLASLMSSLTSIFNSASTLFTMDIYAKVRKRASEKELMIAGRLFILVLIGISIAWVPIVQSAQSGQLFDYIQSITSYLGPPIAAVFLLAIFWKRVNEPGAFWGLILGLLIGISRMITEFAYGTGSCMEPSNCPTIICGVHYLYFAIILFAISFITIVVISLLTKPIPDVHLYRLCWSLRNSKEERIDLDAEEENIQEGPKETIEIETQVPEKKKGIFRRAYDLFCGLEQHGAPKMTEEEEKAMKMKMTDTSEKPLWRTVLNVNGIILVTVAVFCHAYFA
Experimental: (§1) Assay for Inhibitory Effects on Human SGLT Activity
1) Cloning and Construction of the Vector Expressing Human SGLT1
(§2) The cDNA library was prepared for PCR amplification by reverse transcription from total RNA derived from human small intestine (Ori gene) using oligo-dT as a primer. Using this cDNA library as a template, the DNA fragment coding 1 to 2005 bp of human SGLT1 (ACCESSION: M24847), which was reported by Hediger et al., was amplified by PCR method and inserted into the multi-cloning site of pcDNA3.1(−) (Invitrogen). The DNA sequence inserted was perfectly matched to the previously reported sequence.
(§3) 3) Preparation of the Cells Expressing Human SGLT1 or SGLT2 […]
(§4) A mixture of non-labeled (Sigma) and ^14C-labeled α-MG (Amersham Pharmacia Biotech) was added to the uptake buffer (pH 7.4; containing 140 mM sodium chloride, 2 mM potassium chloride, 1 mM calcium chloride, 1 mM magnesium chloride, 10 mM 2-[4-(2-hydroxyethyl)-1-piperazinyl]ethane sulfonic acid and 5 mM tris(hydroxymethyl)aminomethane) at the final concentration of 1 mM. […] Radioactivity was measured by means of micro-scintillation counter TopCount (Packard). One hundred % was set to the difference between the uptake in the control group and the basal uptake, and the uptake of methyl α-D-glucopyranoside at each drug concentration was calculated. […]

human SGLT2 = target: T2, human SGLT2 (Homo sapiens, UniProt P31639); experiment: Inhibition of methyl-α-D-glucopyranoside uptake in COS-7 cells expressing human SGLT2; assay type: cell-based; details: 14C α-MG uptake, 1 mM α-MG, transfected COS-7 cells, 1 hour at 37° C.; read-out: hSGLT2 IC50
T2 construct: expressed in transfected cells; host or cells: COS-7 cells, transient lipofection of pcDNA3.1(-) vector
T2 sequence (P31639 1-672): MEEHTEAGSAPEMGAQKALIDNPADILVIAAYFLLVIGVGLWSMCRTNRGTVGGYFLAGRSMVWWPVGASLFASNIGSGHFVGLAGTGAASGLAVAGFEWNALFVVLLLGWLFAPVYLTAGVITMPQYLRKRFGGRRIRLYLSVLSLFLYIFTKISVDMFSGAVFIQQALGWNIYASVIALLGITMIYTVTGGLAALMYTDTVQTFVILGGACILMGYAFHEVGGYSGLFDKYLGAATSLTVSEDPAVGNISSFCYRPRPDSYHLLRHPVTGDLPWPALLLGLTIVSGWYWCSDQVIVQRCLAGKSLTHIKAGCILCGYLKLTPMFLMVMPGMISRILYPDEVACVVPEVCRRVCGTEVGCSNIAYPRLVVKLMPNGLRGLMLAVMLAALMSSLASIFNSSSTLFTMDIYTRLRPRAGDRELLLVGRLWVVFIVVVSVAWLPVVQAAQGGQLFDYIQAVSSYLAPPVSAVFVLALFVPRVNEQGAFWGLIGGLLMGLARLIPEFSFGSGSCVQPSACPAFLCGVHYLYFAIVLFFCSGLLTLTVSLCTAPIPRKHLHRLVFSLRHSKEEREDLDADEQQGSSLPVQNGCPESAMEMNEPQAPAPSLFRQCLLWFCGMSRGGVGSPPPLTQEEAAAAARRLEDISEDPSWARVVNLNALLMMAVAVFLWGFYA
Experimental: as §1
2) Cloning and Construction of the Vector Expressing Human SGLT2
as §2, with “human kidney” for “human small intestine”, “coding 2” for “coding 1”, “to 2039” for “to 2005”, “human SGLT2” for “human SGLT1”, “(ACCESSION: M95549, M95299),” for “(ACCESSION: M24847),”, “by R. G. Wells” for “by Hediger”
as §3, §4

Row | Compound | IC50 (human SGLT1) [nM] | IC50 (human SGLT2) [nM]
1 | COc1ccc(Cn2cc([C@@H]3O[C@H](CO)[C@@H](O)[C@H](O)[C@H]3O)c3cccc(C)c32)cc1 [Example 6] | 83 | –
2 | COc1ccc(Cn2cc([C@@H]3O[C@H](CO)[C@@H](O)[C@H](O)[C@H]3O)c3cc(C)ccc32)cc1 [Example 8] | – | 6
